Experimental data: ChEMBL document CHEMBL5096216, “Rational Design, Synthesis, and Biological Evaluation of Novel S1PR2 Antagonists for Reversing 5-FU-Resistance in Colorectal Cancer” (J Med Chem, 2022)

Key:
[1] = target: Sphingosine 1-phosphate receptor 1 (Homo sapiens, UniProt P21453); experiment: Binding affinity to S1PR1 (unknown origin) assessed as dissociation constant by surface plasmon resonance analysis
[2] = Metabolic stability in rat liver homogenate assessed as half life at 1 mg/ml incubated for 48 hrs by HPLC analysis; assay type: ADME, tissue-based
HCT-116 = experiment: Antiproliferative activity against human HCT-116 cells overexpressing DPD assessed as reduction in cell viability incubated for 48 hrs by MTT assay; assay type: functional, cell-based; conditions: HCT-116, 48 h
SW620/5-FU [3] = experiment: Downregulation of JMJD3 expression in human SW620/5-FU cells incubated for 12 hrs by Western blot analysis; assay type: functional, cell-based; conditions: dose 2.5-20 µM, DDE = dose-dependent effect
SW620/5-FU [4] = experiment: Upregulation of H3K27me3 expression in human SW620/5-FU cells incubated for 12 hrs by Western blot analysis; assay type: functional, cell-based; conditions: dose 2.5-20 µM, DDE = dose-dependent effect
SW620/5-FU [5] = experiment: Induction of apoptosis in human SW620/5-FU cells assessed as late apoptotic cells at 20 uM incubated for 24 hrs in presence of 5-FU by Annexin-V/PI staining based flow cytometry assay (reference value: 2.97%); assay type: functional
SW620/5-FU [6] = experiment: Antitumor activity against human SW620/5-FU cells xenografted in nude mouse assessed as tumor volume at 10 mg/kg/day, iv measured on day 1 in presence of 5-FU (reference value: 105 +/- 14 mm3); assay type: functional; conditions: time 1 day
SW620/5-FU [7] = experiment: Antitumor activity against human SW620/5-FU cells xenografted in nude mouse assessed as tumor wight at 1 mg/kg/day, iv in presence of 5-FU (reference value: 1.3 +/-0.6 g); assay type: functional
[8] = Toxicity in nude mouse xenografted with human SW620/5-FU cells assessed as morphological changes in liver at 1 to 10 mg/kg/day, iv by hematoxylin-eosin staining based analysis; assay type: organism-based; conditions: in vivo, dose 1-10 mg/kg/day
HT-29 = experiment: cells; conditions: Homo sapiens, HT-29, 48 h
Description: Reversal of 5-FU resistance in human HT-29 cells assessed as reduction in 5-Fluorouracil IC50 at 5 uM incubated for 48 hrs (Rvb = 2768.36 +/- 89.25 %)

Sphingosine 1-phosphate receptor 1, sequence (P21453 whole entry): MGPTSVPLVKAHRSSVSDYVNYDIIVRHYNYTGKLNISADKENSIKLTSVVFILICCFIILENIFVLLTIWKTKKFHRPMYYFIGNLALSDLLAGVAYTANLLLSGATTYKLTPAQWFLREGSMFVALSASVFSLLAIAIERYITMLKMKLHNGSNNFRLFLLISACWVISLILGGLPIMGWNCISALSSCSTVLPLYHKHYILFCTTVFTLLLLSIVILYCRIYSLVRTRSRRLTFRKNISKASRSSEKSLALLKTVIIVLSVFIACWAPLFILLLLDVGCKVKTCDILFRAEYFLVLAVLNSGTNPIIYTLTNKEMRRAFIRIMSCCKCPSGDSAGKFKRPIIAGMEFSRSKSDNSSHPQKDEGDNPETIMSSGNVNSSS

Kd [1]: > 100 nM
half-life at 1 mg/ml [2]: > 2880 min
IC50 (HCT-116): > 100 µM
IC50 (HT-29): 21.8 µM
SMILES: CCC(CC)CN1CCN(C(=O)Nc2cc(Oc3ccc(F)cc3)cc(Oc3ccc(C(=O)NC)cc3)c2)CC1
Activity (SW620/5-FU [3]): Dde
Activity (SW620/5-FU [4]): Dde
Activity (SW620/5-FU [5]): 7.14%
Activity (SW620/5-FU [6]): 104 mm3
Activity (SW620/5-FU [7]): 0.6 g
Activity [8]: Non-Toxic
